{"source": "patent US20170056336A1", "about": "“CO-TARGETING ANDROGEN RECEPTOR SPLICE VARIANTS AND MTOR SIGNALING PATHWAY FOR THE TREATMENT OF CASTRATION-RESISTANT PROSTATE CANCER” (British Columbia Cancer Agency Branch, priority 2015, published 2017)", "key": {"AR-V567": {"molecular_target": "T1, AR-V567 (Homo sapiens, UniProt P10275)", "T1 construct": "expressed in transfected cells; host or cells: Cos-1", "T1 sequence (P10275 with tags, fused parts or gaps limits assumed)": "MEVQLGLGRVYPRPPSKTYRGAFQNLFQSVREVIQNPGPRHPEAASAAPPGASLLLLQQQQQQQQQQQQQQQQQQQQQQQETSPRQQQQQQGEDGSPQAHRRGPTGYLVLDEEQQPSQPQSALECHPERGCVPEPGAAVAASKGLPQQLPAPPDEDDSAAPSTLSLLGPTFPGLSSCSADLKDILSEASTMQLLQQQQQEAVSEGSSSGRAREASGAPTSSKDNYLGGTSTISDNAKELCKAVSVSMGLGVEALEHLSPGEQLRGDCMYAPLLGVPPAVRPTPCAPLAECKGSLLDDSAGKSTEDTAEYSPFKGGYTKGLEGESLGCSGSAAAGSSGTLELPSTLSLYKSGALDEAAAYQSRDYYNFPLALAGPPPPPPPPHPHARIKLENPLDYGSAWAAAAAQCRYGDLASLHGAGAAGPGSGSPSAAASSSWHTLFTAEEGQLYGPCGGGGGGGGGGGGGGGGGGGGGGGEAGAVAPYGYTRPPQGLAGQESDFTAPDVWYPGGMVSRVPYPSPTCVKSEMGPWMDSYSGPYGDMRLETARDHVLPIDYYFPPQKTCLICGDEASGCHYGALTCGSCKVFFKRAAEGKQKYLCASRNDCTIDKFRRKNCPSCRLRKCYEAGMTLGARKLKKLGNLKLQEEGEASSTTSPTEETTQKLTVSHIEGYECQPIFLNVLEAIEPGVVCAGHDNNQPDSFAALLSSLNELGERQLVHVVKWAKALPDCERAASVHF", "experiment": "PB-luciferase assay in Cos-1 cells transfected with AR-V567", "format": "cell-based", "settings": "24 h, serum-free", "description": "Ectopic protein levels of AR-V7 and AR-V567 in Cos-1 cells are shown relative to endogenous levels of FL-AR in LNCaP cells."}, "LNCaP95 xenografts": {"tested_on": "LNCaP95 xenografts", "experiment": "Immunohistochemistry of harvested xenografts", "format": "in vivo, mice", "settings": "immunohistochemistry"}, "[1]": {"tested_on": "genes regulated by FL-AR and AR-V7 in LNCaP95 cells", "experiment": "Gene expression analysis (quantitative real-time RT-PCR) in LNCaP95 cells", "format": "cell-based, human"}, "FL-AR": {"molecular_target": "T2, FL-AR (Homo sapiens, UniProt P10275, T878A)", "T2 sequence (P10275 1-920 T878A)": "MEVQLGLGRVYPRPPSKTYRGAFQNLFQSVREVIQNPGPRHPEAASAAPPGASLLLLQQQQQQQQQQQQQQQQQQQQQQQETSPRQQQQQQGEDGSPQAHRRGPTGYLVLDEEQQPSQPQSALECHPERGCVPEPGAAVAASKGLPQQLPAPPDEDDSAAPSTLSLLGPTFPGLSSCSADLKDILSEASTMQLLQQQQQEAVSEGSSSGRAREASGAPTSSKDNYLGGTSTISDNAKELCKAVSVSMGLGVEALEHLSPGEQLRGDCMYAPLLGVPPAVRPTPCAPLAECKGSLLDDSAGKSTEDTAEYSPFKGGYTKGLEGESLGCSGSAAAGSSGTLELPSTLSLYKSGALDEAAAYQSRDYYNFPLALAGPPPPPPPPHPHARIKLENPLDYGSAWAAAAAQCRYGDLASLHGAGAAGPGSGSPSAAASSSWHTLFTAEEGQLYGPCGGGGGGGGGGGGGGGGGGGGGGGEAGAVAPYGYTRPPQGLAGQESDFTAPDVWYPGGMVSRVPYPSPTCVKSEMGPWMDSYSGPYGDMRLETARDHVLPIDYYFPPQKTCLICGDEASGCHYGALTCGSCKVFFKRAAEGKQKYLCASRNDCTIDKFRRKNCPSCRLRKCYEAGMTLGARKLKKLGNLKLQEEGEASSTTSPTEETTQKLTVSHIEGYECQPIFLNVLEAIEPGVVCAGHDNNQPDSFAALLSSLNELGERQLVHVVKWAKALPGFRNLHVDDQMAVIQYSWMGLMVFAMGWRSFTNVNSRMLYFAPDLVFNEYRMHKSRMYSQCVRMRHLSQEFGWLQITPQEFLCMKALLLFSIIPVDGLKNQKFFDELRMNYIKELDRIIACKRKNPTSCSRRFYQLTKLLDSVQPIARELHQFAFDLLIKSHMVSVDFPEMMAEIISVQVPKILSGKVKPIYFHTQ", "experiment": "PSA-, ARR3-, PB-luciferase AR reporter assay in LNCaP cells"}, "AR": {"molecular_target": "T3, AR (Homo sapiens, UniProt P10275, T878A)", "T3 sequence (P10275 1-920 T878A)": "T2 sequence (P10275 1-920 T878A)", "experiment": "PSA-, ARR3-, PB-luciferase AR reporter assay in LNCaP95 cells", "settings": "LNCaP95 cells treated with androgen, BEZ-235 15 nM"}, "LNCaP95 cells": {"tested_on": "LNCaP95 cells", "experiment": "Titration of BEZ-235 for cytotoxicity in LNCaP95 cells", "format": "cell-based, human"}}}
{"smiles": "Cn1c(=O)n(-c2ccc(C(C)(C)C#N)cc2)c2c3cc(-c4cnc5ccccc5c4)ccc3ncc21", "note": "[BEZ-235, 2-methyl-2-[4-(3-methyl-2-oxo-8-quinolin-3-ylimidazo[4,5-c]quinolin-1-yl)phenyl]propanenitrile]", "values": [{"measurement": "transcriptional activity of AR-V567", "setting": "AR-V567", "result": "no effect"}, {"measurement": "UBE2C staining", "setting": "LNCaP95 xenografts", "result": "reduced"}, {"measurement": "pS6 staining", "setting": "LNCaP95 xenografts", "result": "reduced"}, {"measurement": "TMPRSS2 or FKBP5 transcripts in response to BEZ-235", "setting": "[1]", "result": "No similar effects"}, {"measurement": "levels of FL-AR transcript", "setting": "[1]", "result": "did not increase"}, {"measurement": "increase in transcript levels of AR-V7", "setting": "[1]; absence of androgen", "result": "greater than 2 fold"}, {"measurement": "levels of PSA transcript", "setting": "[1]; absence of androgen", "result": "induced"}, {"measurement": "transcript levels of AR-V7 target genes (UBE2C, CDC20, Akt1)", "setting": "[1]; absence of androgen", "result": "consistently reduced"}, {"measurement": "androgen-induced levels of PSA transcripts", "setting": "[1]; compared to androgen alone", "result": "significantly increased"}, {"measurement": "UBE2C levels", "setting": "[1]; monotherapy, regardless of androgen", "result": "attenuated"}, {"measurement": "activity of FL-AR in response to androgen", "setting": "FL-AR", "result": "did not enhance"}, {"measurement": "PSA-, ARR3- and PB-luciferase activities", "setting": "AR", "result": "significantly increased"}, {"measurement": "cytotoxicity", "setting": "LNCaP95 cells; 500 nM BEZ-235", "result": "enormous cytotoxicity"}, {"measurement": "non-toxic concentration", "setting": "LNCaP95 cells; titration experiments", "result": 15, "unit": "nM"}]}
